Measurements as given in patent US20070264191A1, “Materials and Methods Relating to the Treatment of Glioblastomas” (priority 2004, published 2007).
Peptide text beside a SMILES is read from it.

Legend:
[1] = tested on: SF767 glioma cells; experiment: Transfection with peptide/pNGVL-Luc complexes, luciferase activity, SF767; format: cell-based, human
Protocol: The formation and transfection of peptide/DNA complexes were carried out according to Patel et al. with slight modifications. […] […] […] The peptide was added dropwise to the DNA solution while vortexing gently (Stuart Scientific, UK). This mixture was allowed to incubate at room temperature (RT) for 30 min. After 30 min, the mixture was diluted to 4 μg/ml DNA with DMEM in the presence of 100 μM of chloroquine, and added to cells.
The human tumor cell lines, dGli36, SF767, U251, A549, HeLa, HepG2, and CNE2 were cultured in DMEM supplemented with 10% fetal bovine serum (FBS) (Hyclone Laboratories, Logan, Utah). For transfection, 3×10^5 cells were seeded into each well of a six-well plate (Nunc, Roskilde, Denmark). After culturing the cells overnight, the cells were washed twice with PBS. Freshly prepared peptide/DNA complexes were added into each well and incubated for 2 h at 37° C. For transfection performed in the presence of serum, FBS was added to a final concentration of 10% directly after addition of peptide/DNA complexes to each well. The reporter gene activity was assayed after 24 h or 48 h.
Cells were harvested from 6-well plates 24 h or 48 h following transfection, washed, resuspended in 120 μl of Tris-HCl (pH 7.8), and freeze-thawed three times. Cell debris was discarded following centrifugation at 14,000 g at 4° C. for 10 min. One hundred μl of the supernatant collected was used for assaying luciferase activity using the Auto-Lumat LB952 luminometer (EG&G Berthold, Bad Wildbad, Germany). Five microliter of the supernatant collected was used for the determination of protein concentration using the Bio-Rad protein assay dye reagent (Bio-Rad Laboratories, Hercules, USA) with the Ultrospec 3000 UV/visible spectrophotometer (Amersham Biosciences AB, Uppsala, Sweden).

[2] = tested on: U87MG glioma cell line; settings: Spear et al., 2001; cited from earlier work
[3] = tested on: other glioma cells; settings: Spear et al., 2001; cited from earlier work
[4] = tested on: SF767 glioma xenograft; experiment: In vivo fluorescent peptide binding assay, intratumoral injection; settings: SCID mice, 100 μg lissamine-rhodamine conjugated peptide intratumorally, 20 min, FIG. 6
Protocol: SF767-tumor bearing mice were randomized into 2 groups (2 per group). Fifty microliter of 100 μg of lissamine rhodamine conjugated (K16)-MG11 or (K16)-H42 was injected intratumorally into 2 mice harboring the tumor, and allowed to circulate for 20 min. After 20 min, the mice were anethesized and perfused through the heart with PBS followed by 4% paraformaldehyde. The tumor were dissected and prepared for cryostat sections. The sections were then counterstained in FITC-phalloidin and mounted. Images were examined using LSM 510 meta confocal microscope (Carl Zeiss Microscopy, Göttingen, Germany) with appropriate filters.
After 20 min of circulation, the mouse bearing the SF767 glioma xenograft was perfused and tumor was harvested. The tumor sections were counterstained with FITC-labeled phalloidin, which stains F-actin, to determine the cell surface.

[5] = tested on: SF767, U251MG, and M059K human glioma cell lines; experiment: In vitro fluorescent peptide binding assay, glioma cell lines; settings: lissamine-rhodamine conjugated peptide, 100 ng, 20 min, 37° C., FIG. 4
Protocol: (§1) For in vitro binding assay, 1×10^5 cells were seeded into each well of a 24-well dish (Nunc, Roskilde, Denmark). After culturing the cells overnight at 37° C., the cells were washed once with PBS, followed by incubating in blocking buffer containing PBS with 1% BSA at room temperature for 1 h. The cells were washed twice with PBS. One hundred nanogram of lissamine-rhodamine conjugated peptide (Mimotopes, Victoria, Australia) were added to the blocking buffer containing 0.1% sodium azide, and incubated with the cells at 37° C. for 20 min. This is followed by 5 washes of PBS with 0.1% Tween-20 at RT for 5 min intervals. The cells were then fix in 4% paraformaldehyde, followed by counterstaining using FITC-phalloidin (Sigma-Aldrich Corp., St. Louis, Mo.) and mounted. Images were captured digitally and analyzed using LSM 510 confocal microscope (Carl Zeiss Microscopy, Gottingen, Germany) with appropriate filters.
(§2) To determine the direct specific binding of the (K16)-MG11 peptide to cell surface of glioma cells, (K16)-MG11 peptide was conjugated to lissamine rhodamine. After incubating the conjugated (K16)-MG11 to the various tumor cell lines, SF767, U251MG, M059K, A549, HepG2, and HK1, for 20 minutes at 37° C., the cells were examined under confocal microscopy and the level of fluorescence detected were compared between glioma and non-glioma cells. […]

[6] = tested on: non-glioma cell lines (A549, HepG2, HK1); experiment: In vitro fluorescent peptide binding assay, non-glioma cell lines; design: species or system human; settings: lissamine-rhodamine conjugated peptide, 100 ng, 20 min, 37° C., FIG. 4
Protocol: as §1, §2

Compound: CC[C@H](C)[C@H](NC(=O)[C@H](CO)NC(=O)[C@H](CCCCN)NC(=O)[C@H](CCCCN)NC(=O)[C@H](CCCCN)NC(=O)[C@H](CCCCN)NC(=O)[C@H](CCCCN)NC(=O)[C@H](CCCCN)NC(=O)[C@H](CCCCN)NC(=O)[C@H](CCCCN)NC(=O)[C@H](CCCCN)NC(=O)[C@H](CCCCN)NC(=O)[C@H](CCCCN)NC(=O)[C@H](CCCCN)NC(=O)[C@H](CCCCN)NC(=O)[C@H](CCCCN)NC(=O)[C@H](CCCCN)NC(=O)[C@@H](N)CCCCN)C(=O)N1CCC[C@H]1C(=O)N[C@H](C(=O)N[C@@H](CCCCN)C(=O)N[C@@H](Cc1ccccc1)C(=O)N[C@@H](CC(N)=O)C(=O)N[C@@H](CCCCN)C(=O)N1CCC[C@H]1C(=O)N[C@@H](CC(C)C)C(=O)N[C@@H](Cc1c[nH]c2ccccc12)C(=O)N[C@@H](C)C(=O)N[C@H](C(=O)N[C@@H](Cc1ccccc1)C(=O)N1CCC[C@H]1C(=O)N1CCC[C@H]1C(=O)N[C@@H](CCCNC(=N)N)C(=O)N1CCC[C@H]1C(=O)N1CCC[C@H]1C(=O)N[C@@H](Cc1c[nH]c2ccccc12)C(=O)N[C@@H](CC(C)C)C(=O)O)[C@@H](C)O)C(C)C [(K16)-MG11, poly-L-lysine-SIPVKFNKP-MG11] (H-KKKKKKKKKKKKKKKKSIPVKFNKPLWATFPPRPPWL-OH)
- toxicity to treated cells ([1]; peptide: DNA ratios of 10:1 and 20:1): toxicity could be detected

Compound: MCPKHPLGC
- binding specificity [2]: specific for U87MG glioma cell line
- binding [3]: did not bind

Compound: poly-L-lysine-SIPVKFNKP-H42 [(K16)-H42]
- luciferase expression ([1]; complex with pNGVL-Luc, chloroquine, 48 h post transfection, FIG. 3C): 8444 RLU/μg
- luciferase expression at various peptide to DNA ratios ([1]; ratios 1:2, 2:1, 10:1, 20:1, 24 h post-transfection, FIG. 3A): no significant binding could be detected
- red fluorescence in tumor cryostat sections [4]: red fluorescent was not detected
- cell surface fluorescence (confocal microscopy) [5]: non-specific red fluorescence was observed in all cell lines
- cell surface fluorescence (confocal microscopy) [6]: non-specific red fluorescence was observed in all cell lines
